Reference: patent USRE30511E, “Imidazo[1,5-d]-as-triazine-4(3H)-ones and thiones” (American Cyanamid Company, priority 1979, dated 1981)

Assays:
[1] = tested on: Mouse Skin Phosphodiesterase; test: Mouse skin phosphodiesterase (PDE) inhibition test; type: biochemical, Hairless mice; set-up: key: Active: A compound is considered active if it inhibits more than theophylline, that is, to 50% of control at 1 mM concentration of compound, or to 80% of control of 0.05 mM concentration of compound; conditions: 10 ug./ml. final concentration; 30° C. for 15 minutes
[2] = tested on: Monkey Lung Cyclic AMP Phosphodiesterase; test: Monkey lung phosphodiesterase inhibition test; type: biochemical, African green monkeys; conditions: usually 1 mM or 0.1 mM; pH 7.4, 25° C. for 20 minutes
Description: Lung parenchyma of African green monkeys is homogenized in a Waring blender and centrifuged at 40,000×gravity for 20 minutes. The supernatant is brought to 70% saturation of ammonium sulfate, centrifuged and the pellet redissolved and dialysed, before aliquoting and storage at --20° C.
Phosphodiesterase is assayed by the method of Thompson and Appleman, ibid. An assay tube contains a 0.4 ml. solution of the following: 45 mM tris-HCl buffer, pH 7.4, […], 0.1 mM dithioerythritol, 10^-6 M cyclic AMP, 0.1 uCi [^3 H]-cyclic AMP, and test compound at the desired concentration (usually 1 mM or 0.1 mM). Compounds not readily soluble in water are dissolved at 40 times the desired concentration in methanol, and diluted 20 times with water. If the compound is not dissolved at this time, it is suspended by sonication before being diluted 1:2 into the assay tube. In this case the activity of the enzyme in the presence of the compound is compared to a solvent control (2.5% methanol), although the solvent alone has negligible effect. The reaction is initiated by addition of enzyme and proceeds at 25° C. for 20 minutes. It is terminated by incubation at 100° C. for 2 minutes. The tubes are cooled to 25° C., 0.8 ug of 5'-nucleotidase (Crotolu adamantus toxin) is added to each and the tubes incubated at 25° C. for 30 minutes. A 1 milliliter suspension of Bio-Rad Labs. AGIX8 (about 0.5 ml. of settled resin) is added, the tubes centrifuged at 900×gravity for 10 minutes and an aliquot of supernatant removed for scintillation counting. The inhibition by the test compound is calculated as: [formula] where `compound` is the cpm in the presence of compound, `control` is the cpm in the absence of compound, and `blank` is the cpm in the absence of enzyme. […] For this reason, control tubes which contained [^3 H]-AMP instead of [^3 H]-cyclic AMP are run in parallel. A correction of the apparent phosphodiesterase activity is made for the rare compound which inhibited the hydrolysis of AMP.

[3] = Dispersion of aerosol suspension on warming after storage; type: physicochemical; conditions: aerosol suspension in dichlorodifluoromethane with sorbitan trioleate, sonified
Description: The active ingredient and sorbitan trioleate are placed in a beaker and the dichlorodifluoromethane is added at -40° C. whereupon a suspension is formed. The mixture is sonified, that is, treated with a Sonifier, manufactured by the Branson Sonic Power Co. of Danbury, Conn., as model LS-75 at a current input of 9 amperes for 2 minutes. Additional cold dichlorodifluoromethane is added as necessary to keep the volume at 100 ml. The mixture is uniformly dispersed, and has increased stability resulting from the sonification. Each of six 19 ml. stainless steel containers are filled with 15 ml. of the cold mixture, then valves are inserted and sealed in place.

Structure (SMILES)	Mouse Skin Phosphodiesterase (A) [1]	Monkey lung phosphodiesterase inhibition (B) [2]	dispersion of the aerosol suspension [3]
Cc1nc(Cc2ccccc2)n2c(=O)[nH]ncc12 [6-Benzyl-8-methyl-imidazo[1,5-d]-as-triazin-4(3H)-one]	Active		
Cc1nc(C(C)(C)C)n2c(=O)[nH]ncc12 [6-tert-Butyl-8-methyl-imidazo[1,5-d]-as-triazin-4(3H)-one]	Active	Active	
Cc1nc(Cc2ccccc2)n2c(=S)[nH]ncc12 [6-Benzyl-8-methyl-imidazo[1,5-d]-as-triazine-4(3H)-thione]	Active	Active	
O=c1[nH]ncc2cnc(Cc3ccccc3)n12 [6-Benzyl-imidazo[1,5-d]-as-triazin-4(3H)-one]	Active		
CCCc1ncc2cn[nH]c(=O)n12 [6-n-Propyl-imidazo[1,5-d]-as-triazin-4(3H)-one]	Active		
Cc1nc(C)n2c(=O)[nH]ncc12 [6,8-Dimethyl-imidazo[1,5-d]-as-triazin-4(3H)-one]	Active	Active	
CCCOc1ccccc1-c1ncc2cn[nH]c(=O)n12 [6-o-Propoxyphenyl-imidazo[1,5-d]-as-triazine-4(3H)-one]	Active		
O=c1[nH]ncc2cnc(-c3ccccc3)n12 [6-Phenyl-imidazo[1,5-d]-as-triazin-4(3H)-one]	Active		
CCCc1ncc2cn[nH]c(=S)n12 [6-n-Propyl-imidazol[1,5-d]-as-triazine-4(3H)-thione]	Active	Active	
Cc1nc(C)n2c(=S)[nH]ncc12 [6,8-Dimethyl-imidazo[1,5-d]-as-triazine-4-(3H)-thione]	Active		

Other lines, results leading:

Mouse Skin Phosphodiesterase (A) [1]	Monkey lung phosphodiesterase inhibition (B) [2]	dispersion of the aerosol suspension [3]	Structure (SMILES)
Active	Active		Cc1nc(-c2ccccc2)n2c(=O)[nH]ncc12 [8-Methyl-6-phenyl-imidazo[1,5-d]-as-triazin-4(3H)-one]
Active	Active		O=c1[nH]ncc2c(Br)nc(-c3ccccc3)n12 [8-Bromo-6-phenyl-imidazo[1,5-d]-as-triazin-4(3H)-one]
Active			Cc1ncn2c(=O)[nH]ncc12 [8-Methyl-imidazo[1,5-d]-as-triazin-4(3H)-one]
Active			Cc1nc(-c2ccccc2)n2c(=S)[nH]ncc12 [8-Methyl-6-phenyl-imidazo[1,5-d]-as-triazine-4-(3H)-thione]
Active			CC(C)(C)c1ncc2cn[nH]c(=O)n12 [6-tert-Butyl-imidazo[1,5-d]-as-triazin-4(3H)-one]
Active	Active		CCCc1nc(C)c2cn[nH]c(=S)n12 [8-Methyl-6-n-propyl-imidazolo[1,5-d]-as-triazine-4(3H)-thione]
Active			Cc1ncn2c(=S)[nH]ncc12 [8-Methyl-imidazo[1,5-d]-as-triazine-4-(3H)-thione]
		remains dispersed	CC(C)c1nc(Cl)c2cn[nH]c(=S)n12 [8-chloro-6-isopropyl-imidazo[1,5-d]-as-triazine-4(3H)-thione]
Active	Active		O=c1[nH]ncc2c(Cl)nc(-c3ccccc3)n12 [8-Chloro-6-phenyl-imidazo[1,5-d]-as-triazin-4(3H)-one]
